Source: the supplement of paper PMC10307832

What was measured:
Experiment in all cases: relative viability (nuclei count vs DMSO), 5 days (fraction); higher = more cells survive
AZD6482 + Navitoclax = compound: Cc1cc([C@@H](C)Nc2ccccc2C(=O)O)c2nc(N3CCOCC3)cc(=O)n2c1 [AZD6482] + CC1(C)CCC(c2ccc(Cl)cc2)=C(CN2CCN(c3ccc(C(=O)NS(=O)(=O)c4ccc(N[C@H](CCN5CCOCC5)CSc5ccccc5)c(S(=O)(=O)C(F)(F)F)c4)cc3)CC2)C1 [Navitoclax] (partner 0.5 µM)
Outline: (§1)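 Each reported value is a median over duplicate plates. It expresses relative viability: treated-well nuclei count divided by vehicle-well nuclei count. Lung cancer cell lines in 1536-well plates were dosed by pin tool a day after seeding, alone with one drug or with a fixed anchor-drug dose plus five library-drug doses (not always all listed) in √10 steps, and nuclei were counted after 5 days.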

AZD6482 + Palbociclib = compound: Cc1cc([C@@H](C)Nc2ccccc2C(=O)O)c2nc(N3CCOCC3)cc(=O)n2c1 [AZD6482] + CC(=O)c1c(C)c2cnc(Nc3ccc(N4CCNCC4)cn3)nc2n(C2CCCC2)c1=O [Palbociclib] (partner 0.5 µM)
Outline: as §1

[1] = compound: COc1cc2nc(N3CCCN(C)CC3)nc(NC3CCN(Cc4ccccc4)CC3)c2cc1OC + Cc1cc(Nc2cc(N3CCN(C)CC3)nc(Sc3ccc(NC(=O)C4CC4)cc3)n2)n[nH]1 [Tozasertib] (partner 0.1 µM)
Outline: as §1

AZD6482 + Linsitinib = compound: Cc1cc([C@@H](C)Nc2ccccc2C(=O)O)c2nc(N3CCOCC3)cc(=O)n2c1 [AZD6482] + C[C@]1(O)C[C@@H](c2nc(-c3ccc4ccc(-c5ccccc5)nc4c3)c3c(N)nccn32)C1 [Linsitinib] (partner 1 µM)
Outline: as §1

Cell Line: NCI-H460
- relative viability (AZD6482 + Navitoclax; first compound 0.08 µM): 0.968
- relative viability (AZD6482 + Navitoclax; first compound 0.253 µM): 1.08
- relative viability (AZD6482 + Navitoclax; first compound 0.8 µM): 1.07
- relative viability (AZD6482 + Navitoclax; first compound 2.53 µM): 0.859
- relative viability (AZD6482 + Navitoclax; first compound 8 µM): 0.694
- relative viability (AZD6482 + Palbociclib; first compound 0.08 µM): 0.124
- relative viability (AZD6482 + Palbociclib; first compound 0.253 µM): 0.138
- relative viability (AZD6482 + Palbociclib; first compound 0.8 µM): 0.269
- relative viability (AZD6482 + Palbociclib; first compound 2.53 µM): 0.135
- relative viability (AZD6482 + Palbociclib; first compound 8 µM): 0.129
- relative viability ([1]; first compound 0.2 µM): 0.535
- relative viability ([1]; first compound 0.6325 µM): 0.399
- relative viability ([1]; first compound 2 µM): 0.361
- relative viability ([1]; first compound 6.325 µM): 0.625
- relative viability (AZD6482 + Linsitinib; first compound 0.08 µM): 0.717
- relative viability (AZD6482 + Linsitinib; first compound 0.253 µM): 0.703
- relative viability (AZD6482 + Linsitinib; first compound 0.8 µM): 0.783
- relative viability (AZD6482 + Linsitinib; first compound 2.53 µM): 0.306
- relative viability (AZD6482 + Linsitinib; first compound 8 µM): 0.206

Cell Line: HCC-15
- relative viability (AZD6482 + Navitoclax; first compound 0.08 µM): 0.666
- relative viability (AZD6482 + Navitoclax; first compound 0.253 µM): 0.616
- relative viability (AZD6482 + Navitoclax; first compound 0.8 µM): 0.626
- relative viability (AZD6482 + Navitoclax; first compound 2.53 µM): 0.515
- relative viability (AZD6482 + Navitoclax; first compound 8 µM): 0.523
- relative viability (AZD6482 + Palbociclib; first compound 0.08 µM): 0.652
- relative viability (AZD6482 + Palbociclib; first compound 0.253 µM): 0.631
- relative viability (AZD6482 + Palbociclib; first compound 0.8 µM): 0.77
- relative viability (AZD6482 + Palbociclib; first compound 2.53 µM): 0.676
- relative viability (AZD6482 + Palbociclib; first compound 8 µM): 0.633
- relative viability ([1]; first compound 0.2 µM): 0.477
- relative viability ([1]; first compound 0.6325 µM): 0.378
- relative viability ([1]; first compound 2 µM): 0.557
- relative viability ([1]; first compound 6.325 µM): 0.368
- relative viability (AZD6482 + Linsitinib; first compound 0.08 µM): 0.803
- relative viability (AZD6482 + Linsitinib; first compound 0.253 µM): 0.894
- relative viability (AZD6482 + Linsitinib; first compound 0.8 µM): 0.858
- relative viability (AZD6482 + Linsitinib; first compound 2.53 µM): 0.812
- relative viability (AZD6482 + Linsitinib; first compound 8 µM): 0.922

Cell Line: NCI-H441
- relative viability (AZD6482 + Navitoclax; first compound 0.08 µM): 0.752
- relative viability (AZD6482 + Navitoclax; first compound 0.253 µM): 0.59
- relative viability (AZD6482 + Navitoclax; first compound 0.8 µM): 0.563
- relative viability (AZD6482 + Navitoclax; first compound 2.53 µM): 0.702
- relative viability (AZD6482 + Navitoclax; first compound 8 µM): 0.632
- relative viability (AZD6482 + Palbociclib; first compound 0.08 µM): 0.248
- relative viability (AZD6482 + Palbociclib; first compound 0.253 µM): 0.246
- relative viability (AZD6482 + Palbociclib; first compound 0.8 µM): 0.215
- relative viability (AZD6482 + Palbociclib; first compound 8 µM): 0.182
- relative viability ([1]; first compound 0.2 µM): 0.607
- relative viability ([1]; first compound 0.6325 µM): 0.623
- relative viability ([1]; first compound 2 µM): 0.581
- relative viability ([1]; first compound 6.325 µM): 0.69
- relative viability (AZD6482 + Linsitinib; first compound 0.08 µM): 0.459
- relative viability (AZD6482 + Linsitinib; first compound 0.253 µM): 0.499
- relative viability (AZD6482 + Linsitinib; first compound 0.8 µM): 0.554
- relative viability (AZD6482 + Linsitinib; first compound 2.53 µM): 0.323
- relative viability (AZD6482 + Linsitinib; first compound 8 µM): 0.531

Cell Line: EPLC-272H
- relative viability (AZD6482 + Navitoclax; first compound 0.08 µM): 0.943
- relative viability (AZD6482 + Navitoclax; first compound 0.8 µM): 0.994
- relative viability (AZD6482 + Navitoclax; first compound 2.53 µM): 0.896
- relative viability (AZD6482 + Navitoclax; first compound 8 µM): 0.775
- relative viability (AZD6482 + Palbociclib; first compound 0.08 µM): 0.297
- relative viability (AZD6482 + Palbociclib; first compound 0.253 µM): 0.292
- relative viability (AZD6482 + Palbociclib; first compound 0.8 µM): 0.328
- relative viability (AZD6482 + Palbociclib; first compound 2.53 µM): 0.332
- relative viability (AZD6482 + Palbociclib; first compound 8 µM): 0.244
- relative viability ([1]; first compound 0.2 µM): 0.247
- relative viability ([1]; first compound 0.6325 µM): 0.269
- relative viability ([1]; first compound 2 µM): 0.344
- relative viability ([1]; first compound 6.325 µM): 0.29
- relative viability (AZD6482 + Linsitinib; first compound 0.08 µM): 0.999
- relative viability (AZD6482 + Linsitinib; first compound 0.8 µM): 0.898
- relative viability (AZD6482 + Linsitinib; first compound 2.53 µM): 0.667
- relative viability (AZD6482 + Linsitinib; first compound 8 µM): 0.537
